Tests used:
PGE2 secretion = assay: Inhibition of PGE2 secretion in LPS activated mouse macrophages (RAW 264.7); type: cell-based; settings: RAW264.7, LPS activated RAW 264.7 cells, same experimental setup, known anti-inflammatory drugs
Method: The assay reproduces in vitro the true enzymatic activity, the test compounds, up to 10 μM, were preincubated for 5 minutes with purified COX-2, then the natural substrate AA was added and the reaction was allowed to proceed for 2 minutes. HCl was used to stop the enzyme catalysis and saturated stannous chloride was added to stabilize the PGH2 product into PGF2α.
RAW 264.7 macrophages, a mouse cell line (ATCC # TIB 71), were grown in Dulbecco's modified Eagle's medium (DMEM) with 4 mM L-glutamine adjusted to contain 1.5 g/L sodium bicarbonate, 4.5 g/L glucose, and 10% heat inactivated fetal bovine serum. Cells were grown in tissue culture flasks and seeded at appropriate density into 24 wells tissue culture plates. 0.5×10^6 Raw cells in one milliliter were stimulated with 2 μg/ml Lipopolysaccharide E. coli 055:B5 (DIFCO Laboratories). The mouse macrophages were pre-treated for one hour with controls or 10 μM of dexanabinol and its analogs, unless indicated otherwise, and later on activated with LPS.

[1] = tested on: carrageenan induced paw edema; assay: Carrageenan induced paw edema; type: in vivo, mice; settings: 3 hours after carrageenan
[2] = tested on: ConA injured liver (ALT release); assay: ALT release from ConA injured liver; type: in vivo, mice; settings: PRS-211,092 5 mg/kg, FK-506 1 mg/kg
Method: (§1) Each experimental group contained at least twenty BALB/c inbred female mice (25 g average weight, Harlan, Israel). The negative control group was composed of mice injected with saline instead of ConA. The injection of ConA (Sigma) was done i.v. at the base of the tail at the dose of 15 mg/kg in saline. The treatments were injected i.v. at 5 mg/kg, 30 minutes before ConA injection, unless indicated otherwise. Compounds were dissolved in cremophor:ethanol, further diluted with saline before injection, and vehicle only was included as an internal control. Analysis was performed at predetermined time points following ConA injection.
Impact of treatment was monitored at three levels. First, blood samples (200-400 μl) were collected at predetermined time points after ConA injection, using retro-orbital puncture. After short centrifugation (5000 rpm for 2 min) serum was recovered and stored at −80° C. until further use for determination of cytokines concentrations by ELISA and aminotransferase release from the liver as a marker for liver injury.
Alanine aminotransferase (ALT) is an enzyme found mainly in the liver and it is measured to determine whether the liver is damaged or diseased in a variety of human conditions, especially hepatitis and cirrhosis. The level of its release into the bloodstream linearly correlates with the severity of the liver injury and thus it can be used both for diagnosis purposes and to monitor the efficiency of a treatment. The time course of plasma ALT release after ConA injection is known from the literature to peak at eight hours. […] We used this assay to preliminarily assess the temporal window of PRS-211,092 efficiency and the compound was administered either 30 or 60 minutes after induction of injury. […] FK-506 was used as positive control and at the dose of 1 mg/kg, it reduced ALT concentrations by 92%, 93% and 86% when injected at the three previously described time points. Thus, the test compound has an important beneficial impact on liver injury as assessed by the reduction of ALT, a robust marker of the liver injury. […]

SAA-3 gene expression = assay: SAA-3 liver gene expression (acute phase response), ConA model; type: in vivo, mice; settings: 1 mg/kg, on average at both time points of four and eight hours
Method: (§2) II reverse transcriptase (Life Technologies).
as §1
(§3) The acute phase response is an innate body defense seen during acute inflammation, infection and trauma, which involves the altered production of certain blood proteins termed acute phase proteins (APPs). As previously stated activated macrophages and other leukocytes release pro-inflammatory cytokines such as TNF-α, IL-1 and IL-6. These cytokines in turn stimulate hepatocytes to synthesize and secrete acute phase proteins such as C-reactive protein (CRP), mannose-binding lectin (MBL), haptoglobin and serum amyloid A (SAA). Measurement of acute phase protein level is used to monitor the severity of the innate response and thus predict the prognosis of the disease. […]

[3] = tested on: haptoglobin gene expression; assay: Haptoglobin liver gene expression (acute phase response), ConA model; type: in vivo, mice; settings: 1 mg/kg, on average at both time points of four and eight hours
Method: as §2, §1, §3

recombinant COX-2 = recombinant COX-2 (Homo sapiens, UniProt P35354); assay: In vitro enzymatic activity of recombinant COX-2 (PGF2α EIA); type: biochemical
Chain of recombinant COX-2 (P35354 18-604): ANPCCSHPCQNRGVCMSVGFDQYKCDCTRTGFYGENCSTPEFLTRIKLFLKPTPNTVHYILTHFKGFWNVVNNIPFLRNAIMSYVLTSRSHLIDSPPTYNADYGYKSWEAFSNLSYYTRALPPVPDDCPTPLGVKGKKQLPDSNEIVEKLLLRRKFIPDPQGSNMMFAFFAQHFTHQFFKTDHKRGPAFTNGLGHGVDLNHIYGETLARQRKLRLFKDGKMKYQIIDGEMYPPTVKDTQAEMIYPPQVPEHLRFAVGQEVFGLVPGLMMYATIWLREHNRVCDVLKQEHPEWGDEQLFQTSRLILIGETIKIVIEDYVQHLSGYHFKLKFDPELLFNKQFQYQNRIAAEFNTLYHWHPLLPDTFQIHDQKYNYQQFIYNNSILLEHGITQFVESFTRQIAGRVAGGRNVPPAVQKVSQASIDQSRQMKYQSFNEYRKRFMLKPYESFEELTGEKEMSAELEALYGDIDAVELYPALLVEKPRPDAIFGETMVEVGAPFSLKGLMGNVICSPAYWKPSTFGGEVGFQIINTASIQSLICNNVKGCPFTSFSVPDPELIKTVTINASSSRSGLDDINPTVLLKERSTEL

Row | Compound | IC50 (PGE2 secretion) | Reduction in paw thickness ([1]; 0.1 mg/kg i.p.) | Reduction in paw thickness ([1]; 0.25 mg/kg i.p.) | Reduction in paw thickness ([1]; 0.5 mg/kg i.p.) | other results
1 | Cc1ccc(-c2cc(C(F)(F)F)nn2-c2ccc(S(N)(=O)=O)cc2)cc1 [Celecoxib] | 5 nM | 24% | 28% | 33% | –
2 | C[C@@H]1C[C@H]2[C@@H]3CCC4=CC(=O)C=C[C@]4(C)[C@@]3(F)[C@@H](O)C[C@]2(C)[C@@]1(O)C(=O)CO [Dexamethasone] | – | 26% | 31% | 33% | –
3 | C=CC[C@@H]1/C=C(\C)C[C@H](C)C[C@H](OC)[C@H]2O[C@@](O)(C(=O)C(=O)N3CCCC[C@H]3C(=O)O[C@H](/C(C)=C/[C@@H]3CC[C@@H](O)[C@H](OC)C3)[C@H](C)[C@@H](O)CC1=O)[C@H](C)C[C@@H]2OC [FK-506] | – | – | – | – | Reduction of ALT concentrations ([2]; administered 30 minutes after induction of injury): 93%; Reduction of ALT concentrations ([2]; administered 30 minutes before ConA, 8 hours after ConA): 92%; Reduction of ALT concentrations ([2]; administered 60 minutes after induction of injury): 86%; Reduction in gene expression of SAA-3 (SAA-3 gene expression): 97%; Reduction in gene expression of haptoglobin [3]: 78%
4 | CS(=O)(=O)Nc1ccc([N+](=O)[O-])cc1OC1CCCCC1 [NS-398] | 100 nM | – | – | – | –
5 | CS(=O)(=O)c1ccc(C2=C(c3ccccc3)C(=O)OC2)cc1 [Rofecoxib, reference compound] | 100 nM | – | – | – | Inhibition of COX-2 enzymatic activity (recombinant COX-2): strongly inhibited

Reference: US20050137251A1, “Dexanabinol and dexanabinol analogs regulate inflammation related genes” (priority 2002, published 2005)
